# In patent US9604926B2 (THE UNIVERSITY OF MISSISSIPPI, priority 2007, dated 2017):
# “Also recorded” adds a separate entry of the source.
# Tests used:
# [1] = Metabolic stability of AZ_66 in rat liver microsomes; type: in vitro ADME
# Experimental: Metabolic stability of AZ_66 (1 μM) was performed in Ammonium acetate buffer (50 mM, pH 7.4) with Rat liver microsomes (0.5 mg) at 37° C. in 0.5 ml of incubation mixture. The incubation mixture composed of Ammonium acetate buffer (50 mM, pH 7.4), Magnesium chloride (3 mM), NADPH regenerating system consisting of NADP (1 mM), glucose-6-phosphate (5 mM), and glucose-6-phosphate dehydrogenase (1 Unit/mL). The Substrate and microsomes were pre incubated at 37° C. for 5 min before starting the reaction. The reactions were started by the addition of regenerating system and carried out at 37° C. in a shaking water bath for 60 min. The incubations were stopped by adding equal volume of ice cold acetonitrile at predetermined time points (0, 5, 15, 30, 60 min). The samples were centrifuged for 10 min at 4° C. and the supernatant was injected in to UPLC/MS/MS. Control incubation without NADPH was also performed and these served as 100% value. All microsomal incubations were conducted using the same lot of microsomes.
# In vitro half-life and CLint: The percent of the parent compound remaining is plotted versus time. The slope of the line gives the rate constant k for the disappearance of parent compound, from which an in vitro t1/2 can be calculated. CLint can be calculated using the following formula
# [formula] [V] is the incubation volume in μl and [P] is the amount of microsomal protein in the incubation.
# σ-2 receptor = σ-2 receptor (Rattus norvegicus (Rat), UniProt Q5U3Y7); test: σ-2 receptor binding in rat brain homogenates ([3H]DTG plus (+)-pentazocine); conditions: read-out: Ki (nm) σ2; compound listing tables
# Sequence of σ-2 receptor (Q5U3Y7 whole entry): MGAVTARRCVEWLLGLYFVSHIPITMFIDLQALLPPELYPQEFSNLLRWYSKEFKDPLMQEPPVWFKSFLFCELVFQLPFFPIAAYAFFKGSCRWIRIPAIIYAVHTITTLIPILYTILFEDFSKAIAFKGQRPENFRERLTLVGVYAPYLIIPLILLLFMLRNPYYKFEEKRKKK
# Experimental: Compounds were evaluated for σ-1 and σ-2 binding in rat brain homogenates. […] The assays were terminated with ice-cold 10 mM Tris-HCl, pH 8.0, followed by two washes through glass fiber filters that were pre-soaked for at least 30 min in 0.5% polyethyleneimine.
# opioid receptors = test: Non-σ competition binding, opioid receptors ([3H]bremazocine); conditions: rat brain homogenates
# Experimental: (§1) Compounds were tested at various non-σ target sites to evaluate selectivity because cocaine interacts with these sites (dopamine, serotonin and norepinephrine transporters) or historic “sigma” ligands interact with them (opioid, NMDA, dopamine D2, 5-HT2 receptors). The compounds were tested in competition binding assays using rat brain homogenates as previously published. […] The results were reported as Ki in nM.
# Swiss Webster mice [2] = test: Cocaine-induced convulsions; type: in vivo, mouse; conditions: i.p. pretreatment 15 min before cocaine 70 mg/kg i.p.
# Swiss Webster mice [3] = test: Cocaine-induced locomotor activity; type: in vivo, mouse; conditions: i.p. pretreatment 15 min before cocaine 20 mg/kg i.p.
# Experimental: Male, Swiss Webster mice were acclimated to the treatment room and then to the chambers of the automated activity monitoring system (San Diego Instruments, San Diego, Calif.). […] The total locomotor activity (ambulatory, fine and rearing movements) of the mice was recorded for the next 30 min as the number of disruptions made by them in the 16×16 photobeam grid of their testing chamber.
# Swiss Webster mice [4] = test: Expression of cocaine-induced sensitization; type: in vivo, mouse; conditions: compound on Day 15 before cocaine 10 mg/kg i.p.
# Experimental: Male, Swiss Webster mice were acclimated as detailed above. For five consecutive days (Days 1-5), the mice were pretreated (i.p) with saline, then challenged 15 min later with cocaine (10 mg/kg, i.p.). The total locomotor activity (ambulatory, fine and rearing movements) of the mice was recorded for the next 30 min. A 10 day drug free period followed and on Day 15, the mice were administered saline (i.p.) or compound (0.1-20 mg/kg), followed 15 min later with cocaine (10 mg/kg, i.p.). Locomotor activity was then recorded for the next 30 min.
# Swiss Webster mice [5] = test: Methamphetamine-induced locomotor activity; type: in vivo, mouse; conditions: i.p. pretreatment 15 min before methamphetamine 1 mg/kg i.p.
# Experimental: (§2) Male, Swiss Webster mice were acclimated as detailed above. […] The total locomotor activity (ambulatory, fine and rearing movements) of the mice was recorded for the next 30 min as the number of disruptions made by them in the 16×16 photobeam grids surrounding their testing chambers.
# Swiss Webster mice [6] = test: Methamphetamine-induced dopamine depletions; type: in vivo, mouse; conditions: methamphetamine 5 mg/kg x4 at 2 hr intervals, striatal dopamine one week later
# Experimental: Male, Swiss Webster mice were injected (i.p.) with saline or compound (0-20 mg/kg), followed 15 min later with either saline (-METH) or methamphetamine (5 mg/kg) at 2 hr intervals, a total of four times. Striatal dopamine levels were measured one week later.
# [7] = Partition coefficient (Log P / Log D), shake-flask n-octanol and water/PBS; type: physicochemical; conditions: read-out: experimental Log P O/W±SD
# Experimental: Using the Shake-flask method, 47 n-Octanol and water/PBS, pH 7.4 (equal quantity) were added to a glass vial (25 ml). […] Water/PBS, pH 7.4 phase was brought into a vessel together with a Teflon-coated magnetic stirring bar. The n-octanol phase containing the known quantity of test substance was poured very carefully on top of the aqueous phase in order to avoid emulsion formation as far as possible. […] The contents were allowed to separate on standing and then centrifuged. An aliquot of aqueous layer was taken and diluted (1000 times) for quantitative analysis by UPLC/MS/MS.
# 59 targets (non-sigma) = test: NovaScreen and in-house profile of 59 targets; type: binding; conditions: nine targets
# Experimental: Competition binding assays were performed as previously described. Briefly, radioligands were used to tag the targeted sites under standard conditions.
# [8] = In vitro half-life in mouse liver microsomes; type: in vitro ADME
# Experimental: The reaction was initiated by adding cofactors and quenched at designated time points (0, 5, 10, 15, 30, 45, 60 min) by addition of an equal volume of ice-cold acetonitrile (ACN). […].
# The basic incubation mixture consisted of 5 mM substrate, 1 mg/mL microsomal protein, 3 mM MgCl2, 1 mM NADP, 5 mM glucose-6-phosphate, 1 IU/mL glucose-6-phosphate dehydrogenase, 100 mM Tris HCl buffer (pH 7.4) in a final volume of 1 mL. The reaction was initiated by adding cofactors and quenched at designated time points (0, 5, 10, 15, 30, 45, 60 min) by addition of an equal volume of ice-cold ACN. The mixture was centrifuged at 3000 rpm for 10 min, and the supernatant was analysed by UPLC/MS/MS.
# [9] = type: in vitro ADME
# Swiss Webster mice [10] = test: In vivo cocaine studies with CM304 (cocaine-induced convulsions); conditions: 0.001-10 mg/kg i.p. 15 min before cocaine 70 mg/kg i.p., hydrochloride
# σ-1 receptor = σ-1 receptor (Homo sapiens (Human), UniProt Q99720); conditions: literature, cited from earlier work
# Sequence of σ-1 receptor (Q99720 whole entry, species assumed): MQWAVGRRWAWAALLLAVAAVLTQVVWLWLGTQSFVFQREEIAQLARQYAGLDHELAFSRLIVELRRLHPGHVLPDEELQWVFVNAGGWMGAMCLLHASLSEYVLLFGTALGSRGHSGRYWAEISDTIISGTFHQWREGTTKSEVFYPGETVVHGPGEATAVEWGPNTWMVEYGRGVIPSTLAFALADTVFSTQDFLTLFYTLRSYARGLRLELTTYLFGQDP
# NMDA receptors = test: Non-σ competition binding, NMDA receptors ([3H]TCP); conditions: rat brain homogenates
# Experimental: as §1
# dopamine D2 receptors = dopamine D2 receptors (Rattus norvegicus (Rat), UniProt P61169); test: Non-σ competition binding, dopamine D2 receptors ([3H](−)-sulpiride); conditions: rat brain homogenates
# Sequence of dopamine D2 receptors (P61169 whole entry): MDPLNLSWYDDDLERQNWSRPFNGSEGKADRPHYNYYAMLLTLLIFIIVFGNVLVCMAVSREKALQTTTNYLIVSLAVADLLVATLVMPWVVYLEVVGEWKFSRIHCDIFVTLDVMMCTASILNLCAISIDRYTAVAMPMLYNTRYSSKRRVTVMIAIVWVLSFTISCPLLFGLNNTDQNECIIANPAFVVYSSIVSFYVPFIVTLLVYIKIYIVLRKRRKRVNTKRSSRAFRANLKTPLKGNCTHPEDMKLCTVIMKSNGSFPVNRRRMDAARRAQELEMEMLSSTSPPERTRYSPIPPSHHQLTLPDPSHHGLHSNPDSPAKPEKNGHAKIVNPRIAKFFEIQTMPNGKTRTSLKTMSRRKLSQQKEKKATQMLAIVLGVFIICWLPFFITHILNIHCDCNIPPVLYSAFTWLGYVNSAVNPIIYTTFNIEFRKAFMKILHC
# Experimental: as §1
# 5-HT2 receptors = 5-HT2 receptors (Rattus norvegicus (Rat), UniProt P14842); test: Non-σ competition binding, 5-HT2 receptors ([3H]ketanserin); conditions: rat brain homogenates
# Sequence of 5-HT2 receptors (P14842 whole entry): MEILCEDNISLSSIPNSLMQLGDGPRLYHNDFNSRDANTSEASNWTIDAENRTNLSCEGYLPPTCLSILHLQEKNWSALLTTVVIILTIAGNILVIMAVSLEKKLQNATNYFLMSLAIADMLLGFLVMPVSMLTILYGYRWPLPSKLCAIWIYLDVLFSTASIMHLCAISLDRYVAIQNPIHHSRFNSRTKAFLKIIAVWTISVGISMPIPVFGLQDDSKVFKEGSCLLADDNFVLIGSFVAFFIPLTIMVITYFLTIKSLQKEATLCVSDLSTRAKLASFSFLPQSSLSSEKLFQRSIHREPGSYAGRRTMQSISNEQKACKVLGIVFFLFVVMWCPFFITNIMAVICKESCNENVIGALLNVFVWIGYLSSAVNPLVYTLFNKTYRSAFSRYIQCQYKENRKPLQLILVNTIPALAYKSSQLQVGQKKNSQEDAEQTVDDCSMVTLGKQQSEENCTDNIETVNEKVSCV
# Experimental: as §1
# Swiss Webster mice [11] = test: Development of cocaine-induced sensitization; type: in vivo, mouse; conditions: pretreatment Days 1-5, cocaine 10 mg/kg i.p., test Day 15
# Experimental: as §2, with “of” for “surrounding”, “chamber on each of the five days. A 10 day drug-free period followed. On Day 15, all of the mice were pre-administered (i.p.) saline followed by cocaine (10 mg/kg, i.p.), and locomotor activity quantified for the next 30 min.” for “chambers.”
# mouse brain = conditions: mice, literature; cited from earlier work
# [12] = target: σ-1 receptor (CHO cells transfected with σ-1 receptor cDNA) (Homo sapiens (Human), UniProt Q99720); test: Cell uptake studies in transfected CHO cells; conditions: 120 min
# Sequence of σ-1 receptor (CHO cells transfected with σ-1 receptor cDNA) (Q99720 whole entry): as the sequence (Q99720 whole entry, species assumed) above
# Experimental: Control CHO cells (transfected with a vector not containing the σ-1 receptor gene—to serve as a negative control) and CHO cells transfected with a vector containing σ-1 receptor cDNA (to serve as a positive control for σ-1 receptor expression in cells) were used for the uptake assays. […] The incubated cells were subsequently washed, lysed and counted for radioactivity. All collected data were normalized for amount of protein present in each well.
# Cells CHO cells were grown in Ham's F-12 medium. For uptake studies CHO cells were transfected using Lipofectamine 2000 (Invitrogen, Carlsbad, Calif., USA) and either pcDNA (empty vector, negative control) or σ-1 receptor gene (OPRS1, accession number NM_005866.2, OriGene, Rockville, Md., USA) following manufacturers directions. […] Twenty-four hours later, CHO cells were transfected with either 0.8 μg pcDNA (empty vector, control), or 0.8 μg sigma-1 DNA. […] A portion of each lysate (250 μL) was transferred to a glass tube and activity was measured with a Cobra II γ counter (Packard-Perkin Elmer, Waltham, Mass., USA). Protein content from each well was measured by Bradford assay. The same protocol was followed for (+)-[^3H]pentazocine, except the activity was measured with a liquid scintillation counter (Beckman Coulter LS 6500, Brea, Calif., USA).
# rat brain = conditions: literature; cited from earlier work
smiles,measurement,setting,value
CC(CCCn1c(=O)sc2cc(F)ccc21)N1CCN(C2CCCCC2)CC1 (stereo not drawn) [AZ-66],CLint whole liver,"[1]; AZ_66 1 μM, rat",0.002434 L/min
same,half-life at 1 μM,"[1]; pH 7.4, rat liver microsomes, 1 μM, 0-30 min linear part, read-out: estimated t1/2 for disappearance",116 ± 15 min
same,added substrate metabolized by 60 min,"[1]; rat liver microsomes, 60 min",about 25%
same,microsomal CLint at 1 μM,"[1]; rat, rat liver microsomes, pH 7.4, read-out: estimated CLint from microsomes",6 µL/min/mg
same,Ki,σ-2 receptor,1.76 ± 0.34 nM
S=c1sc2ccccc2n1CCCCN1CCN(C2CCCCC2)CC1 [CM156],Ki,opioid receptors,> 10000 nM
same,attenuation of cocaine-induced convulsions,Swiss Webster mice [2],significant attenuation; also recorded: attenuates the convulsive effects of cocaine
same,attenuation of cocaine-induced locomotor activity,Swiss Webster mice [3],significant attenuation; also recorded: attenuates cocaine-induced locomotor activity
same,attenuation of expression of cocaine-induced sensitization,Swiss Webster mice [4],significant attenuation; also recorded: attenuates the expression of cocaine-induced sensitization
same,attenuation of methamphetamine-induced locomotor activity,Swiss Webster mice [5],attenuated the locomotor stimulant effects of methamphetamine; also recorded: attenuates methamphetamine-induced locomotor activity
same,attenuation of methamphetamine-induced dopamine depletions (neurotoxic effects),Swiss Webster mice [6],attenuated; also recorded: attenuates methamphetamine-induced dopamine depletions
"Cl.O=c1sc2cc(CCCF)ccc2n1CCN1CCCCCC1 [CM304, 3-(2-(azepan-1-yl)ethyl)-6-(3-fluoropropyl)benzo[d]thiazol-2(3H)-one hydrochloride]",logP,[7],-0.15 ± 0.05
same,displacement of the radioligand at 100 nM,59 targets (non-sigma); 100 nM screening concentration,< 20%
same,"displacement of the radioligand at 10,000 nM","59 targets (non-sigma); 10,000 nM screening concentration",> 50%
same,clearance in mouse liver microsomes,[8],0.55 mL/min/g
same,half-life at 5 mM,"[8]; mouse, microsomes, pH 7.4",4.2 min
same,clearance in rat liver microsomes,[9],0.18 mL/min/g
same,attenuation of cocaine-induced convulsions by CM304,Swiss Webster mice [10],significantly attenuated cocaine-induced convulsions at all doses examined
CCCc1ccc2c(c1)sc(=O)n2CCN1CCCCC1 [SN56],Selectivity Ratio for the σ-1 receptor (reported),σ-1 receptor,> 1000
same,Ki,σ-1 receptor; read-out: Ki at σ-1 receptor (reported),0.56 nM
CC(=O)c1ccc2c(c1)oc(=O)n2CCCCN1CCN(c2ccc(F)cc2)CC1.Cl.Cl [SN-79],Ki,opioid receptors,> 10000 nM
same,Ki,NMDA receptors,> 10000 nM
same,Ki,dopamine D2 receptors,> 10000 nM
same,Ki,5-HT2 receptors,320 ± 16 nM
same,attenuation of cocaine-induced convulsions,Swiss Webster mice [2],significant attenuation; also recorded: attenuates the convulsive effects of cocaine
same,attenuation of cocaine-induced locomotor activity,Swiss Webster mice [3],significant attenuation; also recorded: attenuates cocaine-induced locomotor activity
same,attenuation of development of cocaine-induced sensitization,Swiss Webster mice [11],significant attenuation; also recorded: attenuates the development of cocaine-induced sensitization
same,attenuation of expression of cocaine-induced sensitization,Swiss Webster mice [4],attenuates the expression of cocaine-induced sensitization
"O=C(Cc1ccccc1F)NC1CCN(Cc2ccc([18F])cc2)CC1 [[^18F]FBFPA, N-[^18F]4′-fluorobenzylpiperidin-4yl-(2-fluorophenyl) acetamide, reference compound]",affinity for σ-2 receptor/σ-1 receptor (reported),σ-1 receptor,44
COc1cc(CCN2CCN(CCCc3ccccc3)CC2)ccc1OC[18F] [[^18F]FM-SA4503],time of maximum uptake in the brain,mouse brain,30 minutes post injection
"O=c1sc2cc(CCC[18F])ccc2n1CCN1CCCCCC1 [[^18F]FTC-146, 6-(3-fluoropropyl)-3-(2-(azapan-1-yl)ethyl)benzo[d]thiazol-2(3H)-one]",uptake in cells transfected with σ-1 receptor cDNA versus control CHO cells,[12],4 fold
N#Cc1ccc(OCC2CCN(CC[18F])CC2)cc1 [[^18F]SFE],reduction in peak uptake in rat brain over a 90 min period,rat brain,40%
[17F]CCC1OC2(CCN(Cc3ccccc3)CC2)c2ccccc21 (stereo not drawn) [[^18F]fluspidine],brain level at 60 minutes post injection relative to maximum (reported),mouse brain,81 % of its maximum
